The test has as its system 521955-158-R7-J2-PDC spheroids, viability % test/control. Nature of the test: Anticancer human tumor 521955-158-R7-J2-PDC patient-derived pancreatic carcinoma cell line growth inhibition [TAK]. The note with it: spheroids with HUVEC and MSC; for viability, T/C: stronger effect = lower value. An excerpt: Combinatorial screen of targeted agents with TAK-243 and ipatasertib in multi-cell type tumor spheroids
A high-throughput screen of multi-cell type tumor spheroids was designed to identify active combinations of targeted small molecules and TAK-243 or ipatasertib. Complex spheroids include a stromal component modeled by human endothelial cells (HUVEC) and fibroblasts modeled by human mesenchymal stem cells (MSCs). The concentration ranges selected for each drug and investigational agent were based upon clinically achievable concentrations if the clinical Cmax of the agent was known.
Compounds. The drugs and investigational agents: TAK-243 (785004), ipatasertib (767898), everolimus (733504), selumetinib (741078), bortezomib (756655), trametinib (758246), ixazomib (758254), vemurafenib (761431), dabrafenib (764134), sapanisertib (764658), alpelisib (765974), and copanlisib (816437), were obtained from the National Cancer Institute (NCI) Developmental Therapeutics Program Chemical Repository. The FDA-approved anticancer drug set is available from the NCI Developmental Therapeutics Program. […] The stock solutions were prepared in dimethyl sulfoxide (DMSO, Sigma-Aldrich, St. Louis, MO, cat. D2650) at 800-fold the tested concentration and stored at -70 degrees C prior to their use. All drugs and investigational agents were tested over a range starting from a high concentration at or near the clinical Cmax and decreasing in half-log increments. If the clinical Cmax for an agent had not been determined, the highest concentration tested was 10 microM.
NCI60 Cell Culture. NCI60 cell lines were obtained from the NCI Developmental Therapeutics Program Tumor Repository. For each lot of cells, the Repository performed Applied Biosystems AmpFLSTR Identifiler testing with PCR amplification to confirm consistency with the published Identifier STR profile for each cell line. Cells were kept in continuous culture for no more than 20 passages. The optimal seeding densities for each of the cell lines at each time point assessed were determined prior to performing the concentration response studies. Briefly, the NCI60 human tumor lines were grown as monolayers in RPMI 1640 medium supplemented with 10% FBS and 2 mmol/L L-glutamine.
An additional 2 lines were from the NCI60 cell line panel including melanomas, MALME-3M and SK-MEL-2. Pooled donor human umbilical vein endothelial cells (HUVEC, Lonza, cat. CC-2519) and human mesenchymal stem cells (hMSC, Lonza, cat. PT-2501) were purchased from Lonza (Walkersville, MD).
PDMR cell lines were grown in complete medium (DC medium): Dulbecco's modified Eagle's medium (DMEM)/F12 supplemented with 5% fetal bovine serum (FBS), 2 mM L-glutamine, 100 U/mL penicillin and 100 µg/ml streptomycin, 0.4 µg/ml hydrocortisone, 10 ng/ml epidermal growth factor (EGF) recombinant human protein, 24 µg/mL adenine, and 0.1 mg/mL primocin. During culture from frozen stock vials, PDMR cells were cultured in the same medium containing 10 µM Y-27632 (see Table 3). The PDCs were cultured in complete DMEM/F12 media without 10 microM Y-27632 dihydrochloride for at least two passages prior to the screen. The pooled donor HUVEC and hMSC were cultured in endothelial cell growth medium 2 (PromoCell, Heidelberg, Germany, cat. C-22011) and mesenchymal stem cell growth medium 2 (PromoCell, cat. C-28009), respectively. For all experiments, HUVEC and hMSC were used at passages </=5.
For the pre-screen, cell seeding densities were determined from a titration spanning the range from 5,000 to 313 cells per well. The mct-spheroids including 60% malignant cells, 25% HUVEC and 15% MSC dispensed as a mixture into U-bottom Ultra-Low Attachment 384-well plates (Corning, NY)
High-throughput Drug Combination Screening.
Prior to their inoculation into 384-well plates, malignant cells, HUVEC, and hMSC were removed from T flasks using TrypLE express (Thermo Fisher Scientific, cat. 12605036) and harvested by centrifugation for 5 min at 233 x g. […]

In general, IC50 refers to the midpoint of a concentration-inhibition curve. By viability, T/C is commonly meant the ratio of treated to control.

Molecules are shown by their SMILES. Values joined by “and” are separate entries in the source; they are usually repeats but may differ in a detail not shown here. Equal values may be shown once.
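Note: spheroids exposed to compound for 7 days before readout.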

Take `CC(C)CC(NC(=O)CNC(=O)c1cc(Cl)ccc1Cl)B1OC(=O)CC(CC(=O)O)(C(=O)O)O1` (stereo unspecified) + CC(C)NCC(C(=O)N1CCN(c2ncnc3c2C(C)CC3O)CC1)c1ccc(Cl)cc1: the IC50 reads like this: (curve of first compound, second compound 0.3 µM) 38.8 nM; (curve of first compound, second compound 0.949 µM) 47.4 nM; (curve of first compound, second compound 3 µM) 42 nM; (curve of first compound, second compound 9.49 µM) 35 nM; (curve of first compound, second compound 30 µM) 33.3 nM. For the same molecule, the viability, T/C runs as follows: (second compound 0.3 µM, first compound 0.000316 µM) 103%; (second compound 0.3 µM, first compound 0.001 µM) 71.9%; (second compound 0.3 µM, first compound 0.00316 µM) 96.8%; (second compound 0.3 µM, first compound 0.01 µM) 104%; (second compound 0.3 µM, first compound 0.0316 µM) 60.1%; (second compound 0.3 µM, first compound 0.1 µM) 3.16%. The viability, T/C by setting is: (second compound 0.949 µM, first compound 0.000316 µM) 119%; (second compound 0.949 µM, first compound 0.001 µM) 92.2%; (second compound 0.949 µM, first compound 0.00316 µM) 87.6%; (second compound 0.949 µM, first compound 0.01 µM) 103%; (second compound 0.949 µM, first compound 0.0316 µM) 74.7%; (second compound 0.949 µM, first compound 0.1 µM) 4.69%. Also, the viability, T/C reads like this: (second compound 3 µM, first compound 0.000316 µM) 85.6%; (second compound 3 µM, first compound 0.001 µM) 90.8%; (second compound 3 µM, first compound 0.00316 µM) 109%; (second compound 3 µM, first compound 0.01 µM) 85.9%; (second compound 3 µM, first compound 0.0316 µM) 64.8%; (second compound 3 µM, first compound 0.1 µM) 5.79%. Moreover, the viability, T/C runs as follows: (second compound 9.49 µM, first compound 0.000316 µM) 116%; (second compound 9.49 µM, first compound 0.001 µM) 98.8%; (second compound 9.49 µM, first compound 0.00316 µM) 82.7%; (second compound 9.49 µM, first compound 0.01 µM) 86.4%; (second compound 9.49 µM, first compound 0.0316 µM) 58.1%; (second compound 9.49 µM, first compound 0.1 µM) 4.1%. The viability, T/C (second compound 30 µM, first compound 0.000316 µM) was 95.1%; the viability, T/C (second compound 30 µM, first compound 0.001 µM) was 105%; the viability, T/C (second compound 30 µM, first compound 0.00316 µM) is 88.7%; the viability, T/C (second compound 30 µM, first compound 0.01 µM) is 80.9%; the viability, T/C (second compound 30 µM, first compound 0.0316 µM) was 52.4%; the viability, T/C (second compound 30 µM, first compound 0.1 µM) is 2.42%.

On to `CC(C)NCC(C(=O)N1CCN(c2ncnc3c2C(C)CC3O)CC1)c1ccc(Cl)cc1` (stereo unspecified), for which the viability, T/C (compound 30 µM) is 84.2% [middle of 10 runs]. The IC50 (compound alone, run of 02/20/2020) was over 30000 nM.

With `Cn1cnc2c(F)c(Nc3ccc(Br)cc3Cl)c(C(=O)NOCCO)cc21`, the viability, T/C is, setting by setting: (compound 0.00949 µM) 66.3% and 85.1%; (compound 0.03 µM) 54.9% and 61.7%; (compound 0.0949 µM) 38.7% and 44.3%; (compound 0.3 µM) 31.6% and 43.3%; (compound 0.949 µM) 25.7% and 30%; (compound 3 µM) 14.6% and 16.5%. Also, the half-inhibitory concentration (IC50) (curve of compound) was 41.6 nM and 87.7 nM.

Regarding `CC(C)(C)c1nc(-c2cccc(NS(=O)(=O)c3c(F)cccc3F)c2F)c(-c2ccnc(N)n2)s1`, the viability, T/C runs as follows: (compound 0.0316 µM) 105% and 103%; (compound 0.1 µM) 113% and 78.3%; (compound 0.316 µM) 99% and 128%; (compound 1 µM) 101% and 131%; (compound 3.16 µM) 104% and 97.7%; (compound 10 µM) 79% and 93.3%. Under “curve of compound”, the IC50 is over 10000 nM.

Values taken from PubChem BioAssay AID2060351 (Molecular Pharmacology Branch, DTP, NCI, 2025).
